Laboratory results taken from publication PMC5320730, “Synthetic curcumin derivative DK1 possessed G2/M arrest and induced apoptosis through accumulation of intracellular ROS in MCF-7 breast cancer cells” (Cancer Cell International, 2017).

Experiments:
MCF-7 cells [1] = experiment: Flow cytometry AnnexinV-FITC/PI apoptosis analysis; assay type: cell-based, human
Procedure: Apoptosis of DK1 treated MCF-7 was compared with the control cell by Flow cytometry AnnexinV-FITC/PI apoptosis assay. Briefly, harvested cells were resuspended in 100 μL of 1× binding buffer and stained with 5 μL each of AnnexinV-FITC and propidiumiodide. After 15 min of incubation, the cells were added with 400 μL of 1× binding buffer and subjected to BD FACS Calibur flow cytometer analysis using BD Cell Quest Pro software (Becton–Dickinson, USA).

HepG2 cells = experiment: MTT cell viability assay, HepG2; assay type: cell-based; conditions: Homo sapiens
Procedure: (§1) Promyelocytic leukemia HL60, hepatoblastoma HepG2, breast cancer MCF-7 and MDA-MB-231 cells were purchased from ATCC (USA) and cultured in RPMI-1640 media (Sigma, USA), supplemented with 10% fetal bovine serum (FBS) (PAA, USA). Normal epithelial MCF-10A cells (ATCC, USA) was maintain in DMEM-F12 (Sigma, USA) supplemented with hydrocortisone (0.5 μg/mL), insulin (10 μg/mL), human epidermal growth factor (hEGF) (20 ng/mL) (Sigma, USA) and 10% FBS (PAA, USA).
(§2) MTT cell viability assay was used to evaluate the effect of DK1 on viability of HL-60, HepG2, MCF-7, MDA-MB-231 and MCF-10A cells. Briefly, each type of cells (8 × 10^4cells/well) was seeded in 96-well plate in 37 °C CO2 incubator overnight. Then, DK1 was added at concentration ranging between 200 and 3.125 µM by twofold serial dilution. Untreated control was prepared simultaneously. After that, the cells were incubated for 24, 48 and 72 h at 37 °C in 5% CO2 incubator. After the incubation period, all well was added with 20 μL of MTT solution (5 mg/mL) and further incubated for 3 h. Subsequently, 170 μL of supernatant from each well was discarded, 100 μL of dimethyl sulfoxide (DMSO) was added to solubilize the purple formazan crystal and the absorbance was measured at a wavelength of 570 nm by Enzyme-linked immunosorbent assay (ELISA) plate reader (Bio-tek instruments, USA). All cell lines were assayed for three biological replicates each with triplicates. Percentage of cell viability was calculated using the following formula: Cell viability%=OD sample/OD control×100%
(§3) IC50 value (concentration of DK1 that reduce 50% of cell viability compared to control cell) was determined from the graph of cell viability (%) vs DK1 concentration. Subsequently, selective index, which indicating selectivity of DK1 against cancerous and normal breast cell lines, was calculated by: Selective indexSI=IC50of DK1on normal MCF-10A cell line/IC50on breast cancerous cell lineHL60/HepG2/MCF-7/MDA-MB-231

MCF-7 cells [2] = experiment: MTT cell viability assay, MCF-7; assay type: cell-based, human; conditions: for IC50: Homo sapiens, MCF7, MCF-7, MTT
Procedure: as §1, §2, §3

MDA-MB-231 cells = experiment: MTT cell viability assay, MDA-MB-231; assay type: cell-based, human; conditions: for IC50: Homo sapiens, MDA-MB-231, MTT
Procedure: as §1, §2, §3

[3] = tested on: PLK1, p21 and WEE-1 expression in MCF-7 cells; experiment: qRT-PCR of cell cycle related genes; conditions: MCF-7, curcumin 30 µM, 72 h
p53 in MCF-7 cells = experiment: Western blot analysis of p53; assay type: cell-based, human
Procedure: Total protein was extracted from harvested cell with Radioimmunoprecipitation assay (RIPA) buffer supplemented with phosphatase inhibitor cocktail (Roche, Canada) and the concentration was quantified by Bradford assay (Sigma, USA). Then, 100 μg of extracted protein was subjected to sodium dodecyl sulfate polyacrylamide gel electrophoresis (SDS-PAGE) (Bio-Rad, USA), transferred to nitrocellulose membrane, block with 0.5% skimmed milk overnight, washed with Tris-buffered saline tween (TBST) buffer and incubated with primary antibodies (anti-CDC2, anti-pCDC2 (Tyr15), anti-p53, and anti-β-actin at a dilution of 1:1000 (Abcam, USA) for 1 h. After that, membranes were washed, incubated with 1:5000 diluted goat anti-rabbit IgG H&L conjugated to […] (Abcam, USA) and developed under chemiluminescence condition (Super Signal West Pico, Pierce, USA) using the ChemiDoc XRS (Bio-Rad, USA). Differential level of evaluated protein in control and DK1 treated MCF-7 was calculated based on the bands intensity analyzed using the Quantity One 1D Analysis software (Bio-rad, USA).

MCF-10A cells = experiment: MTT cell viability assay, normal MCF-10A; assay type: cell-based; conditions: Homo sapiens
Procedure: as §1, §2, §3

HL-60 cells = experiment: MTT cell viability assay, HL-60; assay type: cell-based; conditions: Homo sapiens, HL-60, MTT
Procedure: as §1, §2, §3

COc1cc(/C=C/C(=O)CC(=O)/C=C/c2ccc(O)c(OC)c2)ccc1O [Curcumin, diferuloylmethane]
late apoptosis, folds lower than DK1 treatment (MCF-7 cells [1]; MCF-7, 72 h, curcumin 30 µM vs DK1 25 µM): 2.6 folds | late apoptosis (MCF-7 cells [1]; MCF-7, curcumin 30 µM, 72 h, AnnexinV/PI): 15% | IC50 (HepG2 cells; 24 h): 67.9 ± 2.88 µM | IC50 (HepG2 cells; 48 h): 40.7 ± 2.76 µM | IC50 (HepG2 cells; 72 h): 24.4 ± 2.25 µM | IC50 (MCF-7 cells [2]; 24 h): 40.7 ± 3.24 µM | IC50 (MCF-7 cells [2]; 48 h): 36.6 ± 2.31 µM | IC50 (MCF-7 cells [2]; 72 h): 30.2 ± 2.36 µM | Selective index of MCF-10A/MCF-7 (MCF-7 cells [2]; IC50 MCF-10A / IC50 MCF-7, 24 h): 4.67 | Selective index of MCF-10A/MCF-7 (MCF-7 cells [2]; IC50 MCF-10A / IC50 MCF-7, 72 h): 3.33 | IC50 (MDA-MB-231 cells; 24 h): 35.3 ± 4.16 µM | IC50 (MDA-MB-231 cells; 48 h): 21.7 ± 1.87 µM | IC50 (MDA-MB-231 cells; 72 h): 21.7 ± 3.18 µM | Selective index of MCF-10A/MDA (MDA-MB-231 cells; IC50 MCF-10A / IC50 MDA-MB-231, 24 h): 5.38 | Selective index of MCF-10A/MDA (MDA-MB-231 cells; IC50 MCF-10A / IC50 MDA-MB-231, 48 h): 5.25 | Selective index of MCF-10A/MDA (MDA-MB-231 cells; IC50 MCF-10A / IC50 MDA-MB-231, 72 h): 4.63 | deregulation of cell cycle regulation related genes compared to DK1 [3]: lower degree of deregulation | deregulation of apoptosis related genes or proteins, particularly p53, compared to DK1 (p53 in MCF-7 cells; MCF-7, curcumin 30 µM, 72 h): lower degree of deregulation | significant upregulation of p53 (p53 in MCF-7 cells; curcumin treated MCF-7): absent | IC50 (MCF-10A cells; 24 h): 190 ± 3.67 µM | IC50 (MCF-10A cells; 48 h): 114 ± 3.57 µM | IC50 (MCF-10A cells; 72 h): 100 ± 3.17 µM | IC50 (HL-60 cells; 24 h): 57 ± 3.75 µM | IC50 (HL-60 cells; 48 h): 29.9 ± 3.11 µM | IC50 (HL-60 cells; 72 h): 21.7 ± 1.76 µM
